The values below come from patent publication US20250152585A1, “PHARMACEUTICAL COMPOUND” (Duke Street Bio Limited, priority 2022, published 2025).

T2 sequence (P09874 whole entry): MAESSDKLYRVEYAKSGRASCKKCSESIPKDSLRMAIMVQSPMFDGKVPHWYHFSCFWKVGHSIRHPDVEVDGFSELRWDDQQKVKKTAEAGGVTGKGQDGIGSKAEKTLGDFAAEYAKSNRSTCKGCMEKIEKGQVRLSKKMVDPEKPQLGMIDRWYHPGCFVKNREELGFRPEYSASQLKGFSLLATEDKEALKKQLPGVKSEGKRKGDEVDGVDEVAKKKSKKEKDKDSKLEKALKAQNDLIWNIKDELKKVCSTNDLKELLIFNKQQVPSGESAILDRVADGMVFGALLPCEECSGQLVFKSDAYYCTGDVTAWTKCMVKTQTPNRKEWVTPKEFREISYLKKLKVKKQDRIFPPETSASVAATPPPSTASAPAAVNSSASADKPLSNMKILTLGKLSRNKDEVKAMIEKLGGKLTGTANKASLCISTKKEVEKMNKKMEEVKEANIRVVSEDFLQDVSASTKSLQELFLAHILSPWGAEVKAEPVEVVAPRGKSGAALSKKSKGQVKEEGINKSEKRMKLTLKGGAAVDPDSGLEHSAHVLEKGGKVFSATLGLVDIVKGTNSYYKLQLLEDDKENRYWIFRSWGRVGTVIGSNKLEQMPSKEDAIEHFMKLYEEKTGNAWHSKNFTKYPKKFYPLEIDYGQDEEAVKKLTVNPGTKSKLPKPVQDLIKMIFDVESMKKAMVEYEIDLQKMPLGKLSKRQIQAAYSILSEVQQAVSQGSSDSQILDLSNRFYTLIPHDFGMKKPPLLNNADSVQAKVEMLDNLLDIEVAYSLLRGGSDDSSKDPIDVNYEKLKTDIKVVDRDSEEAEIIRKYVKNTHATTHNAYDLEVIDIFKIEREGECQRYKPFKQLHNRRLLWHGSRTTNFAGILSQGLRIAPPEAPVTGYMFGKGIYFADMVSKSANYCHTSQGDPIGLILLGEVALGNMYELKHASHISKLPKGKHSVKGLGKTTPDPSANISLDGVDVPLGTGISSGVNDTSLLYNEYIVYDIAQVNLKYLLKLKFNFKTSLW

The target of one experiment is T1, N-terminally FLAG-tagged PARP2 (amino acids 1-583) (Homo sapiens, UniProt Q9UGN5).
T1 construct: N-terminally FLAG-tagged PARP2 (amino acids 1-583)
T1 sequence (Q9UGN5 whole entry, the tested form may be a part): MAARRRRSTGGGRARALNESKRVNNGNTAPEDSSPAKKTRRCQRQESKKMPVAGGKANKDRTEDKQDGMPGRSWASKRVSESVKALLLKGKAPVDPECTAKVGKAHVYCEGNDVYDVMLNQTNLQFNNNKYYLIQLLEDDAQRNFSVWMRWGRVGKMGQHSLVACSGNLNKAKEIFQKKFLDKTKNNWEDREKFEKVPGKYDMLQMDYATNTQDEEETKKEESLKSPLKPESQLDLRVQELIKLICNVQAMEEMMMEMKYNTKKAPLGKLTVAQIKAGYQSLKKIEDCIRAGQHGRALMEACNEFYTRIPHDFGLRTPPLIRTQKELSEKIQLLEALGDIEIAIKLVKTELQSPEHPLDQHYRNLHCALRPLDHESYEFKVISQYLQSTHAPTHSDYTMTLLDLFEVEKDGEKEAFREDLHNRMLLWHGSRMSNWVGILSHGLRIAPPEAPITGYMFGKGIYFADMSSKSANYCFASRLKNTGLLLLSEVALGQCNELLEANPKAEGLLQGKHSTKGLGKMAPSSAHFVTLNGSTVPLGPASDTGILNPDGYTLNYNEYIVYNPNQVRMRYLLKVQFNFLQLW
The experiment in a line: PARP2 probe displacement HTRF assay. The note with it: binned Kd, probe displacement HTRF. The class given is binding. The procedure:
Data analysis was performed identical as for PARP1.
A general note: In TR-FRET formats the signal depends on donor and acceptor labels being close together.
For `CNC(=O)c1ccc(N2CCC(N3CCC(c4cc5ccc(F)cc5c(=O)[nH]4)C3)CC2)c(Cl)n1` (single isomer, unassigned) [Compound 223a], the Kd fell in the range of 100 to 1000 nM.

Compound `CNC(=O)c1cc(C)c(N2CCC(N3CCC(c4nc5ccccc5c(=O)[nH]4)C3)CC2)c(C)n1` (single isomer, unassigned) [Compound 224a] registered a Kd of 1000 to 10000 nM.

In the case of `CNC(=O)c1cc(C)c(N2CCC(N3CCC(c4nc5ccccc5c(=O)[nH]4)C3)CC2)c(C)n1` (single isomer, unassigned) [Compound 224b], the Kd fell in the range of 1000 to 10000 nM.

`CNC(=O)c1ccc(N2CCC(N3CCC(c4nc5c(C)scc5c(=O)[nH]4)C3)CC2)cn1` (single isomer, unassigned) [Compound 232a] showed a Kd of 100 to 1000 nM.

`CNC(=O)c1cc(Cl)c(N2CCC(N3CCC(c4cc5ccc(F)cc5c(=O)[nH]4)C3)CC2)cn1` (single isomer, unassigned) [Compound 236a] returned a Kd of 100 to 1000 nM.

In turn, `CNC(=O)c1cc(Cl)c(N2CCC(N3CCC(c4cc5ccc(F)cc5c(=O)[nH]4)C3)CC2)cn1` (single isomer, unassigned) [Compound 236b] registered a Kd of 10 to 100 nM.

`CCc1ccc(C2CCN(C3CCN(c4ccc(C(=O)NC)nc4Cl)CC3)C2)[nH]c1=O` (single isomer, unassigned) [Compound 239a]: the Kd is above 10000 nM.

Compound `CNC(=O)c1ccc(N2CCC(N3CCC(c4ccc(CCOC)c(=O)[nH]4)C3)CC2)cn1` (single isomer, unassigned) [Compound 240a] came in with a Kd above 10000 nM.

Regarding `CNC(=O)c1ccc(N2CCC(N3CCC(c4ccc(CCOC)c(=O)[nH]4)C3)CC2)cn1` (single isomer, unassigned) [Compound 240b], the Kd was above 10000 nM.

For the compound `CNC(=O)c1ccc(N2CCC(N3CC4(c5nc6ccccc6c(=O)[nH]5)CCC3C4)CC2)cn1` (single isomer, unassigned) [Compound 245a], the Kd lay within 100 to 1000 nM.

In turn, `CNC(=O)c1ccc(N2CCC(N3CC4(c5nc6ccccc6c(=O)[nH]5)CCC3C4)CC2)cn1` (single isomer, unassigned) [Compound 245b] had a Kd above 10000 nM.

`CCc1ccc(C2CCN(C3CCN(c4cnc(C(=O)NC)nc4C)CC3)C2)[nH]c1=O` (single isomer, unassigned) [Compound 246a] came in with a Kd above 10000 nM.

Turning to `CCc1ccc(C2CCN(C3CCN(c4cnc(C(=O)NC)nc4C)CC3)C2)[nH]c1=O` (single isomer, unassigned) [Compound 246b], the Kd was in the range of 1000 to 10000 nM.

In turn, `CNC(=O)c1ccc(N2CCC(N3CCC(c4cc5cccc(OC)c5c(=O)[nH]4)C3)CC2)cn1` (single isomer, unassigned) [Compound 249a] gave a Kd above 10000 nM.

The next experiment has as its target T2, full length N-terminally FLAG-tagged PARP1 (Homo sapiens, UniProt P09874). In words: PARP1 probe displacement HTRF assay. Particulars: PARP1 over PARP2, ratio Kd (PARP2)/Kd (PARP1), probe displacement HTRF.
On to `CNC(=O)c1ccc(N2CCC(N3CCC(c4cc5ccc(F)cc5c(=O)[nH]4)C3)CC2)c(Cl)n1` (single isomer, unassigned) [Compound 223a], for which the Selectivity entry is given as “+++ (+++ indicate a value of at least 100)”.

In the case of `CNC(=O)c1cc(C)c(N2CCC(N3CCC(c4nc5ccccc5c(=O)[nH]4)C3)CC2)c(C)n1` (single isomer, unassigned) [Compound 224a], the Selectivity entry is “− (− indicates a value of less than 10)”.

As to `CNC(=O)c1cc(C)c(N2CCC(N3CCC(c4nc5ccccc5c(=O)[nH]4)C3)CC2)c(C)n1` (single isomer, unassigned) [Compound 224b], the Selectivity result is recorded as “− (− indicates a value of less than 10)”.

Regarding `CNC(=O)c1ccc(N2CCC(N3CCC(c4nc5c(C)scc5c(=O)[nH]4)C3)CC2)cn1` (single isomer, unassigned) [Compound 232a], the Selectivity entry was “− (− indicates a value of less than 10)”.

In the case of `CNC(=O)c1cc(Cl)c(N2CCC(N3CCC(c4cc5ccc(F)cc5c(=O)[nH]4)C3)CC2)cn1` (single isomer, unassigned) [Compound 236a], the Selectivity result is reported as “+ (+ indicates a value of 10 to less than 50)”.

On to `CNC(=O)c1cc(Cl)c(N2CCC(N3CCC(c4cc5ccc(F)cc5c(=O)[nH]4)C3)CC2)cn1` (single isomer, unassigned) [Compound 236b], for which the Selectivity entry is “+ (+ indicates a value of 10 to less than 50)”.

Turning to `CCc1ccc(C2CCN(C3CCN(c4ccc(C(=O)NC)nc4Cl)CC3)C2)[nH]c1=O` (single isomer, unassigned) [Compound 239a], the Selectivity entry is given as “+++ (+++ indicate a value of at least 100)”.

With `CNC(=O)c1ccc(N2CCC(N3CCC(c4ccc(CCOC)c(=O)[nH]4)C3)CC2)cn1` (single isomer, unassigned) [Compound 240a], the Selectivity entry is “++ (++ indicates a value of 50 to less than 100)”.

As for `CNC(=O)c1ccc(N2CCC(N3CCC(c4ccc(CCOC)c(=O)[nH]4)C3)CC2)cn1` (single isomer, unassigned) [Compound 240b], the Selectivity entry is “− (− indicates a value of less than 10)”.

As for `CNC(=O)c1ccc(N2CCC(N3CC4(c5nc6ccccc6c(=O)[nH]5)CCC3C4)CC2)cn1` (single isomer, unassigned) [Compound 245a], the Selectivity result was “+++ (+++ indicate a value of at least 100)”.

On to `CNC(=O)c1ccc(N2CCC(N3CC4(c5nc6ccccc6c(=O)[nH]5)CCC3C4)CC2)cn1` (single isomer, unassigned) [Compound 245b], for which the Selectivity result is “+++ (+++ indicate a value of at least 100)”.

Regarding `CCc1ccc(C2CCN(C3CCN(c4cnc(C(=O)NC)nc4C)CC3)C2)[nH]c1=O` (single isomer, unassigned) [Compound 246a], the Selectivity entry is on record as “+ (+ indicates a value of 10 to less than 50)”.

For the compound `CCc1ccc(C2CCN(C3CCN(c4cnc(C(=O)NC)nc4C)CC3)C2)[nH]c1=O` (single isomer, unassigned) [Compound 246b], the Selectivity entry is “+++ (+++ indicate a value of at least 100)”.

Regarding `CNC(=O)c1ccc(N2CCC(N3CCC(c4cc5cccc(OC)c5c(=O)[nH]4)C3)CC2)cn1` (single isomer, unassigned) [Compound 249a], the Selectivity entry is “− (− indicates a value of less than 10)”.

Still in this experiment, the particulars now being: read-out: PARP1 HTRF; binned Kd, probe displacement HTRF.
In the case of `CNC(=O)c1ccc(N2CCC(N3CCC(c4cc5ccc(F)cc5c(=O)[nH]4)C3)CC2)c(Cl)n1` (single isomer, unassigned) [Compound 223a], the Kd was below 10 nM.

As to `CNC(=O)c1cc(C)c(N2CCC(N3CCC(c4nc5ccccc5c(=O)[nH]4)C3)CC2)c(C)n1` (single isomer, unassigned) [Compound 224a], the Kd lay within 1000 to 10000 nM.

On to `CNC(=O)c1cc(C)c(N2CCC(N3CCC(c4nc5ccccc5c(=O)[nH]4)C3)CC2)c(C)n1` (single isomer, unassigned) [Compound 224b], for which the Kd was in the range of 100 to 1000 nM.

In the case of `CNC(=O)c1ccc(N2CCC(N3CCC(c4nc5c(C)scc5c(=O)[nH]4)C3)CC2)cn1` (single isomer, unassigned) [Compound 232a], the Kd is 10 to 100 nM.

Regarding `CNC(=O)c1cc(Cl)c(N2CCC(N3CCC(c4cc5ccc(F)cc5c(=O)[nH]4)C3)CC2)cn1` (single isomer, unassigned) [Compound 236a], the Kd was 10 to 100 nM.

Regarding `CNC(=O)c1cc(Cl)c(N2CCC(N3CCC(c4cc5ccc(F)cc5c(=O)[nH]4)C3)CC2)cn1` (single isomer, unassigned) [Compound 236b], the Kd was below 10 nM.

Take `CCc1ccc(C2CCN(C3CCN(c4ccc(C(=O)NC)nc4Cl)CC3)C2)[nH]c1=O` (single isomer, unassigned) [Compound 239a]: the Kd was below 10 nM.

In the case of `CNC(=O)c1ccc(N2CCC(N3CCC(c4ccc(CCOC)c(=O)[nH]4)C3)CC2)cn1` (single isomer, unassigned) [Compound 240a], the Kd fell in the range of 10 to 100 nM.

Turning to `CNC(=O)c1ccc(N2CCC(N3CCC(c4ccc(CCOC)c(=O)[nH]4)C3)CC2)cn1` (single isomer, unassigned) [Compound 240b], the Kd is 1000 to 10000 nM.

Take `CNC(=O)c1ccc(N2CCC(N3CC4(c5nc6ccccc6c(=O)[nH]5)CCC3C4)CC2)cn1` (single isomer, unassigned) [Compound 245a]: the Kd was below 10 nM.

`CNC(=O)c1ccc(N2CCC(N3CC4(c5nc6ccccc6c(=O)[nH]5)CCC3C4)CC2)cn1` (single isomer, unassigned) [Compound 245b]: the Kd fell in the range of 10 to 100 nM.

For the compound `CCc1ccc(C2CCN(C3CCN(c4cnc(C(=O)NC)nc4C)CC3)C2)[nH]c1=O` (single isomer, unassigned) [Compound 246a], the Kd was 100 to 1000 nM.

As for `CCc1ccc(C2CCN(C3CCN(c4cnc(C(=O)NC)nc4C)CC3)C2)[nH]c1=O` (single isomer, unassigned) [Compound 246b], the Kd was below 10 nM.

As to `CNC(=O)c1ccc(N2CCC(N3CCC(c4cc5cccc(OC)c5c(=O)[nH]4)C3)CC2)cn1` (single isomer, unassigned) [Compound 249a], the Kd was 1000 to 10000 nM.

The target of another experiment is T2, full length N-terminally FLAG-tagged PARP1. The experiment in a line: PARP1 biochemical DELFIA assay (auto-PARylation). Further details: recombinant full length human N-terminally FLAG-tagged PARP1. The note with it: binned IC50, biochemical auto-PARylation assay.
Turning to `CNC(=O)c1ccc(N2CCC(N3CCC(c4cc5ccc(F)cc5c(=O)[nH]4)C3)CC2)c(Cl)n1` (single isomer, unassigned) [Compound 223a], the IC50 was below 10 nM.

In the case of `CNC(=O)c1cc(C)c(N2CCC(N3CCC(c4nc5ccccc5c(=O)[nH]4)C3)CC2)c(C)n1` (single isomer, unassigned) [Compound 224a], the IC50 lay within 100 to 1000 nM.

On to `CNC(=O)c1cc(C)c(N2CCC(N3CCC(c4nc5ccccc5c(=O)[nH]4)C3)CC2)c(C)n1` (single isomer, unassigned) [Compound 224b], for which the IC50 lay within 100 to 1000 nM.

Turning to `CNC(=O)c1ccc(N2CCC(N3CCC(c4nc5c(C)scc5c(=O)[nH]4)C3)CC2)cn1` (single isomer, unassigned) [Compound 232a], the IC50 lay within 10 to 100 nM.

Consider `CNC(=O)c1cc(Cl)c(N2CCC(N3CCC(c4cc5ccc(F)cc5c(=O)[nH]4)C3)CC2)cn1` (single isomer, unassigned) [Compound 236a], for which the IC50 lay within 10 to 100 nM.

With `CNC(=O)c1cc(Cl)c(N2CCC(N3CCC(c4cc5ccc(F)cc5c(=O)[nH]4)C3)CC2)cn1` (single isomer, unassigned) [Compound 236b], the IC50 was below 10 nM.

`CCc1ccc(C2CCN(C3CCN(c4ccc(C(=O)NC)nc4Cl)CC3)C2)[nH]c1=O` (single isomer, unassigned) [Compound 239a]: the IC50 is below 10 nM.

With `CNC(=O)c1ccc(N2CCC(N3CCC(c4ccc(CCOC)c(=O)[nH]4)C3)CC2)cn1` (single isomer, unassigned) [Compound 240a], the half-inhibitory concentration (IC50) lay within 10 to 100 nM.

For `CNC(=O)c1ccc(N2CCC(N3CCC(c4ccc(CCOC)c(=O)[nH]4)C3)CC2)cn1` (single isomer, unassigned) [Compound 240b], the concentration for half-maximal inhibition (IC50) was in the range of 1000 to 10000 nM.

Regarding `CNC(=O)c1ccc(N2CCC(N3CC4(c5nc6ccccc6c(=O)[nH]5)CCC3C4)CC2)cn1` (single isomer, unassigned) [Compound 245a], the IC50 is below 10 nM.

`CNC(=O)c1ccc(N2CCC(N3CC4(c5nc6ccccc6c(=O)[nH]5)CCC3C4)CC2)cn1` (single isomer, unassigned) [Compound 245b]: the IC50 was in the range of 10 to 100 nM.

`CCc1ccc(C2CCN(C3CCN(c4cnc(C(=O)NC)nc4C)CC3)C2)[nH]c1=O` (single isomer, unassigned) [Compound 246a]: the IC50 lay within 100 to 1000 nM.

As to `CCc1ccc(C2CCN(C3CCN(c4cnc(C(=O)NC)nc4C)CC3)C2)[nH]c1=O` (single isomer, unassigned) [Compound 246b], the IC50 is below 10 nM.

For the compound `CNC(=O)c1ccc(N2CCC(N3CCC(c4cc5cccc(OC)c5c(=O)[nH]4)C3)CC2)cn1` (single isomer, unassigned) [Compound 249a], the IC50 was 1000 to 10000 nM.

One may read the IC50 as the concentration that inhibits the measured activity by half.
